Experimental data taken from PubChem BioAssay AID248 (DTP/NCI, 2004).
Values joined by “and” are separate entries in the source; they are usually repeats but may differ in a detail not shown here. Equal entries are not always repeated. Inconclusive results and toxic doses are left out.

System: L1210 leukemia ip in BDF1 mice, survival T/C
Assay: NCI In Vivo Anticancer Drug Screen. Data for tumor model L1210 Leukemia (intraperitoneal) in B6D2F1 (BDF1) mice
Conditions: endpoint: mean survival time, higher = longer survival
How it was run: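 Antitumor effect is assessed in tumor-bearing animals. Survival in the compound arm is compared with a vehicle-dosed control arm and expressed as their quotient.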

For `Nc1nc2n[nH]nc2c(=O)[nH]1`, the T/C (dose: 1.25 mg/kg/injection, schedule: Q01DX015 (ip), vehicle: clinical formulation) was 109 % of control, the T/C (dose: 1.4 mg/kg/injection, schedule: Q01DX Z (ip), vehicle: carboxymethylcellulose (CMC)) was 109 % of control and the T/C (dose: 2.5 mg/kg/injection, schedule: Q01DX015 (ip), vehicle: clinical formulation) was 107 % of control. For the same compound, the T/C (dose: 2.8 mg/kg/injection, schedule: Q01DX Z (ip), vehicle: carboxymethylcellulose (CMC)) was 109 % of control, the T/C (dose: 3.13 mg/kg/injection, schedule: Q01DX010 (ip), vehicle: alkali diluted with saline) was 108 % of control and 110 % of control and the T/C (dose: 5.0 mg/kg/injection, schedule: Q01DX015 (ip), vehicle: clinical formulation) was 107 % of control. For the same compound, the T/C (dose: 5.0 mg/kg/injection, schedule: Q01DX Z (oral), vehicle: carboxymethylcellulose (CMC)) was 115 % of control, the T/C (dose: 5.59 mg/kg/injection, schedule: Q01DX Z (ip), vehicle: carboxymethylcellulose (CMC)) was 118 % of control and the T/C (dose: 6.25 mg/kg/injection, schedule: Q01DX010 (ip), vehicle: alkali diluted with saline) was 122 % of control and 123 % of control. The T/C (dose: 7.5 mg/kg/injection, schedule: Q01DX Z (sc), vehicle: carboxymethylcellulose (CMC)) was 112 % of control, the T/C (dose: 10.0 mg/kg/injection, schedule: Q01DX015 (ip), vehicle: clinical formulation) was 117 % of control and the T/C (dose: 10.0 mg/kg/injection, schedule: Q01DX Z (oral), vehicle: carboxymethylcellulose (CMC)) was 103 % of control. For the same compound, the T/C (dose: 12.5 mg/kg/injection, schedule: Q01DX006 (iv), vehicle: water) was 104 % of control, the T/C (dose: 12.5 mg/kg/injection, schedule: Q01DX Z (im), vehicle: water) was 121 % of control and the T/C (dose: 12.5 mg/kg/injection, schedule: Q01DX Z (ip), vehicle: other) was 97 % of control. The T/C (dose: 15.0 mg/kg/injection, schedule: Q01DX Z (sc), vehicle: carboxymethylcellulose (CMC)) was 106 % of control, the T/C (dose: 20.0 mg/kg/injection, schedule: Q01DX015 (ip), vehicle: water) was 101 % of control and the T/C (dose: 20.0 mg/kg/injection, schedule: Q01DX Z (oral), vehicle: carboxymethylcellulose (CMC)) was 95 % of control. The T/C (dose: 22.35 mg/kg/injection, schedule: Q01DX Z (ip), vehicle: carboxymethylcellulose (CMC)) was 152 % of control, the T/C (dose: 25.0 mg/kg/injection, schedule: Q01DX005 (ip), vehicle: other) was 111 % of control and the T/C (dose: 25.0 mg/kg/injection, schedule: Q01DX006 (iv), vehicle: water) was 113 % of control. The T/C (dose: 25.0 mg/kg/injection, schedule: Q01DX009 (ip), vehicle: saline) was 154 % of control and 160 % of control, the T/C (dose: 25.0 mg/kg/injection, schedule: Q01DX009 (sc), vehicle: carboxymethylcellulose (CMC)) was 104 % of control and the T/C (dose: 25.0 mg/kg/injection, schedule: Q01DX Z (ip), vehicle: other) was 106 % of control. For the same compound, the T/C (dose: 30.0 mg/kg/injection, schedule: Q01DX Z (ip), vehicle: other) was 121 % of control, the T/C (dose: 40.0 mg/kg/injection, schedule: Q01DX009 (ip), vehicle: other) was 159 % of control and the T/C (dose: 40.0 mg/kg/injection, schedule: Q01DX Z (oral), vehicle: carboxymethylcellulose (CMC)) was 109 % of control. For the same compound, the T/C (dose: 44.0 mg/kg/injection, schedule: Q01DX015 (ip), vehicle: water) was 98 % of control and 115 % of control, the T/C (dose: 50.0 mg/kg/injection, schedule: Q01DX001 (ip), vehicle: steriod suspending solution) was 117 % of control and the T/C (dose: 50.0 mg/kg/injection, schedule: Q01DX005 (ip), vehicle: other) was 122 % of control. The T/C (dose: 50.0 mg/kg/injection, schedule: Q01DX009 (ip), vehicle: carboxymethylcellulose (CMC)) was 159 % of control, the T/C (dose: 50.0 mg/kg/injection, schedule: Q01DX009 (ip), vehicle: other) was 155 % of control and the T/C (dose: 50.0 mg/kg/injection, schedule: Q01DX009 (ip), vehicle: saline) was 156 % of control and 158 % of control. The T/C (dose: 50.0 mg/kg/injection, schedule: Q01DX Z (im), vehicle: water) was 160 % of control, the T/C (dose: 50.0 mg/kg/injection, schedule: Q01DX Z (oral), vehicle: other) was 93 % of control and the T/C (dose: 50.0 mg/kg/injection, schedule: Q01DX Z (oral), vehicle: water) was 98 % of control. The T/C (dose: 50.0 mg/kg/injection, schedule: Q01DX Z (sc), vehicle: water) was 154 % of control, the T/C (dose: 60.0 mg/kg/injection, schedule: Q01DX009 (ip), vehicle: other) was 152 % of control and the T/C (dose: 61.0 mg/kg/injection, schedule: Q01DX015 (ip), vehicle: water) was 156 % of control. The T/C (dose: 62.0 mg/kg/injection, schedule: Q01DX001 (ip), vehicle: carboxymethylcellulose (CMC)) was 121 % of control, the T/C (dose: 62.0 mg/kg/injection, schedule: Q01DX001 (sc), vehicle: carboxymethylcellulose (CMC)) was 106 % of control and the T/C (dose: 64.0 mg/kg/injection, schedule: Q## X024 (ip), vehicle: other) was 150 % of control. The T/C (dose: 75.0 mg/kg/injection, schedule: Q01DX009 (ip), vehicle: other) was 156 % of control, the T/C (dose: 75.0 mg/kg/injection, schedule: Q02DX005 (ip), vehicle: carboxymethylcellulose (CMC)) was 159 % of control and the T/C (dose: 87.0 mg/kg/injection, schedule: Q01DX001 (ip), vehicle: water) was 115 % of control and 122 % of control.
